Reference: US6538022B1, “Compounds for deactivating phospholamban function on Ca-ATPase (phopholamban inhibitors)” (Orion Corporation, priority 1997, dated 2003)
Bridges are numbered along the chain shown (N, C = ends). Where no end group is shown, it is not given here.

What was measured:
[1] = tested on: guinea-pig heart; experiment: Left ventricular systolic pressure in isolated Langendorff-perfused heart; details: Cavia porcellus; for Emax at 30 µM / Emax at 10 µM: read-out: maximum effect (% change from baseline) on left ventricular systolic pressure; for EC50: concentration range 0.3-30 μM
Source text: Experiment 2. The effects on the left ventricular pressure derivatives
Guinea-pigs of either sex weighing 300-400 g were used in the study. After the guinea-pig was sacrificed by a blow on the skull and decapitated the heart was rapidly excised. The heart was then rinsed in cold oxygenated perfusion buffer. A cannula was inserted into the aorta and secured with a ligature. Retrograde perfusion began as soon as the heart was placed in a thermostatically controlled moist chamber of the Langendorff apparatus. Modified Tyrode solution (37° C.), equilibrated in a thermostatically controlled bulb oxygenator with carbogen (95% O2 and 5% CO2) was used as a perfusion buffer. The composition of the Tyrode solution was (in mM): NaCl 135; MgCl2×6H2O 1; KCl 5; CaCl2×2H2O 2; NaHCO3 15; Na2HPO4×2H2O 1; glucose 10; pH 7.3-7.4. The experiments were carried out under constant pressure condition (50 mmHg). After a short prestabilization (10 min) a latex balloon (size 4) was carefully placed into the left ventricle through the left pulmonary vein and the left atrium. The latex balloon was attached to a stainless-steel cannula coupled with a pressure transducer. The latex balloon, the cannula and the chamber of the pressure transducer were filled with ethylene glycol/water (1:1) mixture avoiding any air-bubble. The isovolumetric left ventricular pressure was recorded through the pressure transducer. At the beginning of the experiment, the volume of the balloon was adjusted to obtain a diastolic pressure of approximately 5 mmHg. Before starting the experiment, the heart was allowed to stabilise further for 30-50 min with vehicle (0.1% DMSO) in the perfusion buffer.
After 15 min baseline recording various concentrations of the test compound were added to the perfusion buffer at 15 min intervals. The concentration range of 0.3-30 μM was tested. The vehicle concentration (0.1% DMSO) was kept constant throughout the experiment.

[2] = biological target: T1, PLB (Homo sapiens, UniProt P26678); experiment: Peptide screen for binding to PLB
T1 sequence (P26678 1-52): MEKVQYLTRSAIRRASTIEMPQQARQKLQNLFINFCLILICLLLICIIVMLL
Source text: In order to find a lead molecule which would interact with PLB a series of peptides were screened. […] It was concluded that the cyclic peptide of formula (pI) binds to unphosphorylated PLB and prevents the inhibition exerted by PLB on SERCA—2 thus acting as a PLB deactivator. The cyclic peptide (pI) has the structure: [drawing 1]

[3] = tested on: phospholamban; experiment: Ca2+ uptake into SR vesicles prepared from cardiac tissue (fluo-3); assay type: biochemical, guinea pig; details: 0.1 μM free calcium
Source text: (§1) Experiment 1. Effect on calcium uptake into the SR vesicles prepared from cardiac and fast skeletal muscle
(§2) Since phospholamban represses both the rates of relaxation and contraction in the mammalian heart through its inhibitory effects on the cardiac SR Ca^2+-ATPase, a compound relieving these effects is potentially useful in the treatment of heart failure.
(§3) Guinea pigs (10-12) were decapited. Their hearts or the psoas muscles were excised, washed in ice-cold 0.9% NaCl and cut into pieces in a buffer containing 20 mM Tris-maleate, 0.3 M sucrose, pH 7.0. Thereafter tissue pieces were homogenized with Polytron and further with Potter (10 strokes). The homogenate was centrifugated at 1000 g for 15 min at 4° C. The supernatant was collected and the pellet was resuspended into 5 ml of the buffer (20 mM Tris-maleate, 0.3 M sucrose, pH 7.0) and recentrifugated at 1000 g for 10 min at 4° C. The obtained supernatant was combined with the earlier collected supernatant and centrifugated once again at 10000 g for 20 min at 4° C. The final supernatant was filtered into a bottle equipped with a magnetic stirrer. KCl was added to the filtered supernatant to achieve the final concentration of 0.6 M (at 4° C.). The obtained solution was centrifugated at 100 000 g for 60 min at 4° C. The pellet was suspended in 5 ml of the buffer containing 20 mM Tris-maleate, 0.3 M sucrose, pH 7.0 and centrifugated at 100 000 g for 60 min at 4° C. The obtained pellet was suspended in 5 ml of buffer containing 20 mM Tris-maleate, 0.3 M sucrose, 0.1 M KCl, pH 7.0 and stored at −80° C. until use. The protein concentration was also measured in order to standardise the separately prepared vesicle preparations.
(§4) In the calcium uptake assay, the fluorescent indicator, fluo-3 was used to detect the decrease of the extravesicular Ca^2+-concentration, when the SR Ca^2+ATPase was transferring Ca^2+ from the extravesicular space into the SR-vesicles.
(§5) The SR-vesicles obtained above (50 μg protein/ml) were pre-incubated with or without the test compound at 37° C. for 5 min in the assay buffer containing 40 mM imidazole, 95 mM KCl, 5 mM NaN3, 5 mM MgCl2, 0.5 mM EGTA, 5 mM potassium oxalate, 2 μM ruthenium red, 5 μM fluo-3, pH 7.0. The free calcium was adjusted to 0.1 μM or to 0.04 μM by CaCl2. The reaction was initiated by adding ATP (5 mM). The final reaction volume was 1.5 ml. The fluorescence of reaction mixture was measured for 3 min by using the excitation and emission wavelengths of 510 nm and 530 nm, respectively.

[4] = tested on: SR Ca^2+-ATPase; experiment: Ca2+ uptake into SR vesicles prepared from fast skeletal muscle (psoas m.), which lack phospholamban (fluo-3); assay type: biochemical, guinea pig; details: 0.04 μM free calcium
Source text: as §1, §2, §3, §4, §5

EC50 [1]	Molecule	Emax at 30 µM [1]	Emax at 10 µM [1]	The stimulation (%) of Ca^2+ uptake, A (ventricular myocardium vesicles) ([3]; 100 μM compound)	also measured
5 µM	Cc1c(Cc2ccccc2)c(=O)n(C)c2cc(OCc3nnn[nH]3)cc(OCc3nn[nH]n3)c12 [Example 9d, 5,7-Bis[(1H-tetrazol-5-yl)methoxy]-3-benzyl-1,4-dimethyl-2(1H)-quinolinone]	50%	–	–	–
–	cP226: cyclic peptide of formula (pI) wherein X is Tyr; linear CYWELEWLPCA cyclized by intramolecular disulphide bridge; PLB deactivator (disulfide 1-10 (inferred))	–	–	–	binding to PLB [2]: binds to the ligand binding site of phospholamban
–	Cc1c(Cc2ccccc2)c(=O)n(Cc2ccccc2)c2cc(OCC(=O)NO)cc(OCC(=O)NO)c12 [Example 23, 5,7-Bis(hydroxyaminocarbonylmethoxy)-1,3-dibenzyl-4-methyl-2(1H)-quinolinone]	–	–	–	The stimulation (%) of Ca^2+ uptake, A (ventricular myocardium vesicles) ([3]; 5 μM compound): 20%
4 µM	Cc1c(Cc2ccccc2)c(=O)oc2cc(OCc3noc(=O)[nH]3)cc(OCc3noc(=O)[nH]3)c12 [Example 3c, 3-Benzyl-5,7-bis[(2,5-dihydro-5-oxo-4H-1,2,4-oxadiazol-3-yl)-methoxy]-4-methyl-2H-1-benzopyran-2-one]	–	63%	–	The stimulation (%) of Ca^2+ uptake, A (ventricular myocardium vesicles) ([3]; 20 μM compound): 51%; The stimulation (%) of Ca^2+ uptake, B (fast skeletal muscle vesicles) ([4]; 20 μM compound): 0%
10 µM	Cc1cc(=O)n(Cc2ccccc2)c2cc(OCc3nnn[nH]3)cc(OCc3nnn[nH]3)c12 [Example 18e, 1-Benzyl-5,7-bis-[(1H-tetrazol-5-yl)methoxy]-4-methyl-2(1H)-quinolinone]	35%	–	13%	–
2 µM	Cc1c(Cc2ccccc2)c(=O)n(Cc2ccccc2)c2cc(OCc3nnn[nH]3)cc(OCc3nn[nH]n3)c12 [Example 8g, 5,7-Bis[(1H-tetrazol-5-yl)methoxy]-1,3-dibenzyl-4-methyl-2(1H)-quinolinone]	–	64%	–	The stimulation (%) of Ca^2+ uptake, A (ventricular myocardium vesicles) ([3]; 10 μM compound): 18%; The stimulation (%) of Ca^2+ uptake, B (fast skeletal muscle vesicles) ([4]; 10 μM compound): 0%
3 µM	Cc1c(Cc2ccc([N+](=O)[O-])cc2)c(=O)oc2cc(OCc3nn[nH]n3)cc(OCc3nn[nH]n3)c12 [Example 15c, 5,7-Bis[(1H-tetrazol-5-yl)methoxy]-3-(4-nitrobenzyl)-4-methyl-2H-1-benzopyran-2-one]	–	37%	–	–
–	Cc1c(Cc2ccccc2)c(=O)n(Cc2ccccc2)c2cc(OCC(N)=O)cc(OCC(N)=O)c12 [Example 21, 5,7-Bis(aminocarbonylmethoxy)-1,3-dibenzyl-4-methyl-2(1H)-quinolinone]	–	–	11%	–
10 µM	Cc1c(C2CCCC2)c(=O)oc2cc(OCc3nn[nH]n3)cc(OCc3nn[nH]n3)c12 [Example 16c, 5,7-Bis[(1H-tetrazol-5-yl)methoxy]-3-cyclopentyl-4-methyl-2H-1-benzopyran-2-one]	57%	–	–	–
–	Cc1c(Cc2ccccc2)c(=O)oc2cc(OC(C)c3nn[nH]n3)cc(OC(C)c3nn[nH]n3)c12 (centres unmarked) [Example 11b, 3-Benzyl-5,7-bis[1-(1H-tetrazol-5-yl)ethoxy]4-methyl-2 H-1-benzopyran-2-one]	–	–	28%	–
–	O=c1oc2cc(OCc3nn[nH]n3)cc(OCc3nn[nH]n3)c2c2c1C(c1ccccc1)CCC2 (centres unmarked) [Example 2c, 7,8,9,10-Tetrahydro-1,3-bis[(1H-tetrazol-5-yl)methoxy]-7-phenyl-6H-dibenzo[b,d]pyran-6-one]	–	–	26%	The stimulation (%) of Ca^2+ uptake, B (fast skeletal muscle vesicles) ([4]; 100 μM compound): −1%
–	Cc1c(Cc2ccccc2)c(=O)n(Cc2ccccc2)c2cc(OCC(=O)O)cc(OCC(=O)O)c12 [Example 12, 5,7-Bis(carboxymethoxy)-1,3-dibenzyl-4-methyl-2(1H)-quinolinone]	–	22%	32%	–
2.5 µM	Cc1c(CCc2ccccc2)c(=O)oc2cc(OCc3nn[nH]n3)cc(OCc3nn[nH]n3)c12 [Example 7c, 5,7-Bis[(1H-tetrazol-5-yl)methoxy]-4-methyl-3-(2-phenylethyl)-2H-1benzopyran-2-one]	–	29%	5%	The stimulation (%) of Ca^2+ uptake, B (fast skeletal muscle vesicles) ([4]; 100 μM compound): −17%
9 µM	Cc1c(Cc2ccccc2)c(=O)oc2cc(OCc3nn[nH]n3)cc(OCc3nn[nH]n3)c12 [Example 1c, 3-Benzyl-5,7-bis[(1H-tetrazol-5-yl)methoxy]-4-methyl-2H-1-benzopyran-2-one]	52%	–	–	–
–	O=c1cc(-c2ccccc2)c2c(OCc3nn[nH]n3)cc(OCc3nn[nH]n3)cc2o1 [Example 5c, 5,7-Bis[(1H-tetrazol-5-yl)methoxy]-4-phenyl-2H-1-benzopyran-2-one]	14%	–	–	–
10 µM	Cc1c(Cc2ccccc2)c(=O)n(Cc2ccc(F)cc2)c2cc(OCc3nn[nH]n3)cc(OCc3nn[nH]n3)c12 [Example 13d, 3-Benzyl-5,7-Bis[(1H-tetrazol-5-yl)methoxy]-1-(4-fluorobenzyl)-4-methyl-2(1H)-quinolinone]	48%	–	–	The stimulation (%) of Ca^2+ uptake, A (ventricular myocardium vesicles) ([3]; 50 μM compound): 23%
–	Cc1c(Cc2ccc(Cl)cc2)c(=O)oc2cc(OCc3nn[nH]n3)cc(OCc3nn[nH]n3)c12 [Example 14c, 5,7-Bis[(1H-tetrazol-5-yl)methoxy]-3-(4-chlorobenzyl)-4-methyl-2H-1-benzopyran-2-one]	–	25%	–	The stimulation (%) of Ca^2+ uptake, A (ventricular myocardium vesicles) ([3]; 10 μM compound): 18%
6 µM	Cc1c(Cc2ccccc2F)c(=O)n(Cc2ccccc2)c2cc(OCc3nnn[nH]3)cc(OCc3nnn[nH]3)c12 [Example 19e]	39%	–	–	–
0.5 µM	O=c1oc2cc(OCc3nn[nH]n3)cc(OCc3nn[nH]n3)c2c2c1CC(c1ccccc1)CC2 (centres unmarked) [Example 6c, 7,8,9,10-Tetrahydro-1,3-bis[(1H-tetrazol-5-yl)methoxy]-8-phenyl-6H-dibenzo[b,d]pyran-6-one]	–	25%	–	–
